Laboratory results from patent US20230303549A1, “SUBSTITUTED HETEROARYLOXYPYRIDINES, THE SALTS THEREOF AND THEIR USE AS HERBICIDAL AGENTS” (Bayer Aktiengesellschaft, priority 2020, published 2023).

Experiments:
Type in all cases: in vivo
Stellaria media (STEME) [1] = assay: Pre-emergence herbicide efficacy at 320 g/ha, greenhouse pot test; conditions: visual scoring vs untreated control after about 3 weeks
Excerpt: (§1) Seeds of mono- and dicotyledonous weed plants were placed in plastic pots in sandy loam soil (doubly sown with in each case one species of mono- or dicotyledonous weed plants per pot) and covered with soil. The compounds of the invention, formulated in the form of wettable powders (WP) or as emulsion concentrates (EC), were then applied onto the surface of the covering soil as aqueous suspension or emulsion with addition of 0.5% additive at a water application rate of 600 liters per hectare (converted). After the treatment, the pots were placed in a greenhouse and kept under good growth conditions for the test plants. After about 3 weeks, the effect of the preparations was scored visually in comparison with untreated controls as percentages. For example, 100% activity=the plants have died, 0% activity=like control plants. Tables C1 to C12 below show the effects of selected compounds of the general formula (I) according to Table 1 on various harmful plants and an application rate corresponding to 320 g/ha, which were obtained by the experimental procedure mentioned above.

Bassia scoparia (KCHSC) = assay: as above; conditions: dosage 1280 g/ha in Table C6, visual scoring after about 3 weeks
Excerpt: as §1

Poa annua (POAAN) [2] = assay: as above; conditions: visual scoring vs untreated control after about 3 weeks
Excerpt: as §1

[3] = system: Amaranthus retroflexus (AMARE); assay: Post-emergence herbicidal efficacy at 320 g/ha, greenhouse pot test; conditions: visual rating vs untreated control after about 3 weeks
Procedure: (§2) Seeds of mono- and dicotyledonous weed plants were placed in plastic pots in sandy loam soil (doubly sown with in each case one species of mono- or dicotyledonous weed plants per pot), covered with soil and cultivated in a greenhouse under controlled growth conditions. 2 to 3 weeks after sowing, the test plants were treated at the one-leaf stage. The compounds of the invention, formulated in the form of wettable powders (WP) or as emulsion concentrates (EC), were applied onto the green parts of the plants as aqueous suspension or emulsion with addition of 0.5% additive at a water application rate of 600 liters per hectare (converted). After the test plants had been kept in the greenhouse under optimum growth conditions for about 3 weeks, the activity of the preparations was rated visually in comparison to untreated controls. For example, 100% activity=the plants have died, 0% activity=like control plants. Tables […] 11 below show the effects of selected compounds of the general formula (I) according to Table 1 on various harmful plants and an application rate corresponding to 320 g/ha, which were obtained by the experimental procedure mentioned above.

Stellaria media (STEME) [4] = assay: as above; conditions: visual rating vs untreated control after about 3 weeks
Procedure: as §2

Poa annua (POAAN) [5] = assay: as above; conditions: visual rating vs untreated control after about 3 weeks
Procedure: as §2

Veronica persica (VERPE) [6] = assay: as above; conditions: 320 g/ha, visual rating vs untreated control after about 3 weeks
Procedure: as §2

[7] = system: Abutilon theophrasti (ABUTH); assay: Pre-emergence herbicide efficacy at 320 g/ha, greenhouse pot test; conditions: visual scoring vs untreated control after about 3 weeks
Excerpt: as §1

Setaria viridis (SETVI) = assay: as above; conditions: visual scoring vs untreated control after about 3 weeks
Excerpt: as §1

[8] = system: Echinochloa crus-galli (ECHCG); assay: as above; conditions: visual scoring vs untreated control after about 3 weeks
Excerpt: as §1

[9] = system: Amaranthus retroflexus (AMARE); assay: as above; conditions: visual scoring vs untreated control after about 3 weeks
Excerpt: as §1

[10] = system: Matricaria inodora (MATIN); assay: as above; conditions: visual scoring vs untreated control after about 3 weeks
Excerpt: as §1

Veronica persica (VERPE) [11] = assay: as above; conditions: visual scoring vs untreated control after about 3 weeks
Excerpt: as §1

[12] = system: Abutilon theophrasti (ABUTH); assay: Post-emergence herbicidal efficacy at 320 g/ha, greenhouse pot test; conditions: visual rating vs untreated control after about 3 weeks
Procedure: as §2

Cc1cc(C)c(-c2cc(C(F)F)no2)c(Oc2ncc(Cl)cc2Cl)n1 [Example I-288]
100%: Post-emergence efficacy against Amaranthus retroflexus (AMARE) [3]
90%: Pre-emergence efficacy against Stellaria media (STEME) (Stellaria media (STEME) [1]) | Pre-emergence efficacy against Bassia scoparia (KCHSC) (Bassia scoparia (KCHSC)) | Pre-emergence efficacy against Poa annua (POAAN) (Poa annua (POAAN) [2]) | Post-emergence action against Stellaria media (STEME) (Stellaria media (STEME) [4]) | Post-emergence efficacy against Poa annua (POAAN) (Poa annua (POAAN) [5]) | Post-emergence efficacy against Veronica persica (VERPE) (Veronica persica (VERPE) [6])

Cc1cc(C)c(-c2cc(C(F)F)no2)c(Oc2ncc(F)cc2C#N)n1 [Example I-289]
100%: Post-emergence efficacy against Amaranthus retroflexus (AMARE) [3]
90%: Pre-emergence efficacy against Stellaria media (STEME) (Stellaria media (STEME) [1]) | Pre-emergence efficacy against Bassia scoparia (KCHSC) (Bassia scoparia (KCHSC)) | Post-emergence action against Stellaria media (STEME) (Stellaria media (STEME) [4]) | Post-emergence efficacy against Poa annua (POAAN) (Poa annua (POAAN) [5]) | Post-emergence efficacy against Veronica persica (VERPE) (Veronica persica (VERPE) [6])

Cc1cc(C)c(-c2cc(C(F)F)no2)c(Oc2ncc(Cl)cc2C#N)n1 [Example I-290]
90%: Post-emergence efficacy against Veronica persica (VERPE) (Veronica persica (VERPE) [6])
100%: Post-emergence efficacy against Amaranthus retroflexus (AMARE) [3]

Cc1cc(C)c(-c2cc(C(F)F)no2)c(Oc2ncc(Br)cc2C#N)n1 [Example I-291]
90%: Pre-emergence efficacy against Bassia scoparia (KCHSC) (Bassia scoparia (KCHSC)) | Post-emergence efficacy against Amaranthus retroflexus (AMARE) [3] | Post-emergence efficacy against Veronica persica (VERPE) (Veronica persica (VERPE) [6])

Cc1cc(C)c(-c2cc(C3CC3)no2)c(Oc2ncc(Br)cn2)n1 [Example I-296]
100%: Pre-emergence efficacy against Abutilon theophrasti (ABUTH) [7] | Pre-emergence efficacy against Setaria viridis (SETVI) (Setaria viridis (SETVI)) | Pre-emergence efficacy against Amaranthus retroflexus (AMARE) [9] | Pre-emergence efficacy against Stellaria media (STEME) (Stellaria media (STEME) [1]) | Pre-emergence efficacy against Bassia scoparia (KCHSC) (Bassia scoparia (KCHSC)) | Pre-emergence efficacy against Matricaria inodora (MATIN) [10] | Pre-emergence efficacy against Poa annua (POAAN) (Poa annua (POAAN) [2]) | Post-emergence action against Stellaria media (STEME) (Stellaria media (STEME) [4]) | Post-emergence efficacy against Veronica persica (VERPE) (Veronica persica (VERPE) [6])
90%: Pre-emergence efficacy against Echinochloa crus-galli (ECHCG) [8] | Pre-emergence efficacy against Veronica persica (VERPE) (Veronica persica (VERPE) [11]) | Post-emergence efficacy against Amaranthus retroflexus (AMARE) [3] | Post-emergence efficacy against Poa annua (POAAN) (Poa annua (POAAN) [5])

Cc1cc(C)c(-c2cc(C3(C)CC3)no2)c(Oc2ncc(Cl)cn2)n1 [Example I-297]
100%: Pre-emergence efficacy against Stellaria media (STEME) (Stellaria media (STEME) [1]) | Pre-emergence efficacy against Matricaria inodora (MATIN) [10]
90%: Pre-emergence efficacy against Abutilon theophrasti (ABUTH) [7] | Pre-emergence efficacy against Amaranthus retroflexus (AMARE) [9] | Post-emergence efficacy against Veronica persica (VERPE) (Veronica persica (VERPE) [6])

Cc1cc(C)c(-c2cc(C3(C)CC3)no2)c(Oc2ncc(Br)cn2)n1 [Example I-298]
100%: Pre-emergence efficacy against Stellaria media (STEME) (Stellaria media (STEME) [1])
90%: Pre-emergence efficacy against Amaranthus retroflexus (AMARE) [9] | Pre-emergence efficacy against Matricaria inodora (MATIN) [10] | Post-emergence efficacy against Abutilon theophrasti (ABUTH) [12] | Post-emergence action against Stellaria media (STEME) (Stellaria media (STEME) [4]) | Post-emergence efficacy against Veronica persica (VERPE) (Veronica persica (VERPE) [6])

Cc1cc(C)c(-c2cc(C3(C)CC3)no2)c(Oc2ncc(F)cn2)n1 [Example I-299]
100%: Pre-emergence efficacy against Amaranthus retroflexus (AMARE) [9] | Pre-emergence efficacy against Stellaria media (STEME) (Stellaria media (STEME) [1])
90%: Pre-emergence efficacy against Abutilon theophrasti (ABUTH) [7] | Pre-emergence efficacy against Setaria viridis (SETVI) (Setaria viridis (SETVI)) | Pre-emergence efficacy against Echinochloa crus-galli (ECHCG) [8] | Pre-emergence efficacy against Poa annua (POAAN) (Poa annua (POAAN) [2]) | Post-emergence efficacy against Abutilon theophrasti (ABUTH) [12] | Post-emergence action against Stellaria media (STEME) (Stellaria media (STEME) [4]) | Post-emergence efficacy against Veronica persica (VERPE) (Veronica persica (VERPE) [6])

Cc1cc(C)c(-c2cc(CC3CC3)no2)c(Oc2ncc(Br)cn2)n1 [Example I-300]
90%: Pre-emergence efficacy against Stellaria media (STEME) (Stellaria media (STEME) [1]) | Post-emergence action against Stellaria media (STEME) (Stellaria media (STEME) [4])

Cc1cc(C)c(-c2cc(C3(C)CC3)no2)c(Oc2ncc(Cl)cc2F)n1 [Example I-301]
90%: Post-emergence action against Stellaria media (STEME) (Stellaria media (STEME) [4]) | Post-emergence efficacy against Veronica persica (VERPE) (Veronica persica (VERPE) [6])
